SMILES strings stand for the structures. In brackets after ≈: the same amount, converted by molar mass.

For this data set the following is noted: buffer; pH 7.4; 200.0 µM.
The solubility (kinetic) is the concentration staying in solution when a stock, usually in DMSO, is diluted into the medium. In turn, `CCN(CC(=O)Nc1ccc(C(=O)OC)cc1)C1CCCCC1` gave a kinetic solubility of 43.3 µg/mL (≈ 136 µM). With `O=C(Nc1ccc(Cl)c(S(=O)(=O)N2CCCC2)c1)c1cc(=O)[nH]c2ccccc12` the figure was 14.5 µg/mL (≈ 33.6 µM); with `COc1cccc(/C=C/C(=O)Nc2cccc(C(C)=O)c2)c1OC`, 4.3 µg/mL (≈ 13.2 µM).

Turning to `CN1C(=O)Cc2cc(S(=O)(=O)NCc3cccs3)ccc21`, the kinetic solubility is above 48.4 µg/mL. `CNC(=O)c1sc(-c2cccs2)nc1C`: the solubility (kinetic) was above 35.7 µg/mL. For the compound `CC(C)(C)NC(=O)NC(=O)CN1CCCCC1`, the solubility (kinetic) is above 36.2 µg/mL. Under `O=C(c1ccc(F)cc1)C(Cc1ccccc1)N1CCCCC1` (configuration not stated) stands 13.1 µg/mL (≈ 42.1 µM). Under `O=C(NCC1CCCCC1)c1ccccc1[N+](=O)[O-]` stands above 39.3 µg/mL; under `CCOC(=O)N1CCN(CC(O)c2c[nH]c3ccccc23)CC1` (configuration not stated), above 47.6 µg/mL; under `O=C(Nc1ccccc1)Nc1nc2ccccc2s1`, below 0.2 µg/mL. As to `O=C(/C=C/c1ccccc1)OCCN=C1NS(=O)(=O)c2ccccc21`, the kinetic solubility worked out at 8.6 µg/mL (≈ 24.1 µM). With `O=C(Nc1sc2c(c1C(=O)O)CCCC2)c1ccc(F)cc1` the figure was 41.2 µg/mL (≈ 129 µM); with `O=C(CCSc1ccccc1)Nc1ccccc1Br`, 6.6 µg/mL (≈ 19.6 µM); with `CCC(C)c1ccc(NC(=O)C2CC3CCC2C3)cc1` (configuration not stated), 1.3 µg/mL (≈ 4.79 µM). With `Cc1ccc(C)c(N(CC(=O)NC2CCCC2)S(=O)(=O)c2ccccc2)c1` the figure was below 0.4 µg/mL; with `CC1C(=O)C(C)C(c2ccc(Cl)cc2)NC1c1ccc(Cl)cc1.Cl` (configuration not stated), below 0.8 µg/mL; with `COc1ccc(NC(=S)N2CCC(Cc3ccccc3)CC2)cc1`, 4.7 µg/mL (≈ 13.8 µM). With `CC(C)(C)NC(=O)CN(C(=O)C(=O)Nc1ccc2c(c1)OCCO2)C1CC1` the figure was above 56.3 µg/mL; with `CNC(=O)COc1ccc(S(=O)(=O)N2CCCC2)cc1`, 40.9 µg/mL (≈ 137 µM). On to `OCCC1CN(Cc2ccc3c(c2)CCO3)CCN1C1CCCC1` (configuration not stated), for which the kinetic solubility was determined as 45.2 µg/mL (≈ 137 µM). As to `NC(=O)C1CCN(C(=O)/C(=C/c2ccco2)NC(=O)c2ccccc2)CC1`, the kinetic solubility was above 55.1 µg/mL. Take `Cc1nc(-c2ccc(S(=O)(=O)N3CCOCC3)cc2)cs1`: the kinetic solubility is 20.7 µg/mL (≈ 63.8 µM). Compound `COc1ccc(NC(=O)NS(=O)(=O)c2ccc(C)cc2)cc1OC` yielded a solubility (kinetic) above 52.6 µg/mL.

As for `CCOCC(=O)Nc1cc(C)on1`, the kinetic solubility is 22.8 µg/mL (≈ 124 µM). Under `Cc1ccc(N2C(=O)C3C4C=CC(CC4)C3C2=O)cc1Br` (configuration not stated) stands below 0.7 µg/mL; under `O=C(c1cc2cc(Cl)ccc2[nH]1)N1CCN(c2ccccc2F)CC1`, below 0.3 µg/mL. On to `Cc1ccc(N2CCN(C(=O)Nc3cccc([N+](=O)[O-])c3)CC2C)cc1` (configuration not stated), for which the solubility (kinetic) is 22 µg/mL (≈ 62.1 µM). Under `COc1ccc(OCC(=O)Nc2ccc3c(c2)OCO3)cc1` stands 42.3 µg/mL (≈ 140 µM); under `O=C(CSc1ccccn1)Nc1ccc2c(c1)OCO2`, above 43.2 µg/mL; under `N/C(=N\OC(=O)c1cccs1)c1cccc(Br)c1`, 8.5 µg/mL (≈ 26.1 µM). `O=C(NCC1CC1)c1ccccc1Cl` had a solubility (kinetic) above 31.5 µg/mL. With `O=C(/C=C/c1c(F)cccc1Cl)N1CCc2ccccc2C1` the figure was 5.9 µg/mL (≈ 18.7 µM). `Cc1oc(S(=O)(=O)N2CCOCC2)cc1C(=O)Nc1ccc(F)cc1` registered a solubility (kinetic) of 5.4 µg/mL (≈ 14.7 µM). The solubility kinetic values of the last two compounds are within 1.5-fold of each other. With `CC1CCN(CC#CCOc2ccc(Cl)cc2)CC1.O=C(O)C(=O)O`, the kinetic solubility was determined as 16.3 µg/mL. With `N#Cc1ccc(C(=O)NC2CCCCCCC2)cc1` the figure was above 38.5 µg/mL; with `CC(=O)CC(=O)Nc1ccc(C(N)=O)cc1`, above 33 µg/mL; with `COc1cc2ccccc2cc1C(=O)Nc1ccc(N2CCOCC2)cc1`, 0.8 µg/mL (≈ 2.21 µM). On to `COc1ccccc1N1CCN(C(=O)c2cc(C)oc2C)CC1`, for which the solubility (kinetic) is above 47.2 µg/mL. Take `COc1ccc(C(C)=O)cc1COc1cccnc1[N+](=O)[O-]`: the kinetic solubility was 5.1 µg/mL (≈ 16.9 µM). Regarding `CSc1ncccc1C(=O)Nc1nccs1`, the kinetic solubility was above 37.7 µg/mL.

`O=C(c1ccc(C(F)(F)F)cc1)C1CCCN(C(=O)c2cnccn2)C1` (configuration not stated) had a solubility (kinetic) of 45.6 µg/mL (≈ 126 µM).

`O=C(NC1CN2CCC1CC2)c1cccc(Cl)c1` (configuration not stated) returned a solubility (kinetic) above 39.7 µg/mL. With `CCCCN(Cc1cc2cc(C)ccc2[nH]c1=O)C(=O)c1ccccn1` the figure was above 52.4 µg/mL.

`CC12CCC(C(=O)O)(c3nc4cc([N+](=O)[O-])ccc4nc31)C2(C)C` (configuration not stated) had a kinetic solubility above 49.1 µg/mL. With `CCCNC(=O)c1ccc(COc2ccc(C)cc2)o1` the figure was above 41 µg/mL; with `CC(=O)NS(=O)(=O)c1ccc(NC(=O)CSc2ccccc2)cc1`, 42.5 µg/mL (≈ 117 µM). With `O=C(CCCOc1ccc(Cl)cc1Cl)Nc1ccccn1` the figure was 0.6 µg/mL (≈ 1.85 µM); with `Cc1c(C#N)c(NC(=O)C(C)C)n(Cc2ccccc2)c1C`, 8.1 µg/mL (≈ 27.4 µM).

`CC(C)c1cccc(OCCN2CCCC2)c1` showed a solubility (kinetic) of 22.9 µg/mL (≈ 98.1 µM).

Take `O=C(NN=C1CCCCCC1)c1ccncc1`: the kinetic solubility is above 34.7 µg/mL. Consider `NC(=O)C1Cc2ccccc2CN1S(=O)(=O)c1ccc(Cl)s1` (configuration not stated), for which the solubility (kinetic) was above 53.5 µg/mL. Compound `CCOC(=O)c1c(C)[nH]c(C(=O)OCc2ccccc2F)c1C` displayed a solubility (kinetic) below 0.7 µg/mL.

These data come from PubChem BioAssay AID1996.
